According to ChEMBL document CHEMBL5303304, “EUbOPEN Chemogenomics Library - IncuCyte” (2023):

Tests used:
Format in all cases: toxicity, cell-based
[1] = test system: HEK-293T; assay: Incucyte cell viability with HEK293T; settings: human, 10 µM, compound concentration 10 uM
[2] = test system: Fibroblast; assay: Incucyte cell viability with human fibroblast; settings: 10 µM, compound concentration 10 uM
[3] = test system: U2OS; assay: Incucyte cell viability with U2OS; settings: human, 10 µM, compound concentration 10 uM
Note: unitless GR value; below 1 slowed growth and below 0 cell loss.

| SMILES | Growth Rate ([1]; 6 h, replicate number 2) | Growth Rate ([1]; 12 h, replicate number 2) | Growth Rate ([1]; 18 h, replicate number 2) | Growth Rate ([2]; 0 h, replicate number 1) | Growth Rate ([2]; 6 h, replicate number 1) | Growth Rate ([2]; 18 h, replicate number 1) | Growth Rate ([2]; 24 h, replicate number 1) | Growth Rate ([3]; 6 h, replicate number 2) | Growth Rate ([3]; 12 h, replicate number 2) | Growth Rate ([3]; 18 h, replicate number 2) | Growth Rate ([3]; 24 h, replicate number 2) | Growth Rate ([1]; 0 h, replicate number 2) | Growth Rate ([1]; 18 h, replicate number 1) | Growth Rate ([1]; 24 h, replicate number 1) | Growth Rate ([2]; 12 h, replicate number 2) | Growth Rate ([2]; 18 h, replicate number 2) | Growth Rate ([2]; 24 h, replicate number 2) | Growth Rate ([3]; 0 h, replicate number 1) | Growth Rate ([3]; 12 h, replicate number 1) | Growth Rate ([3]; 24 h, replicate number 1) | also measured |
| --- | --- | --- | --- | --- | --- | --- | --- | --- | --- | --- | --- | --- | --- | --- | --- | --- | --- | --- | --- | --- | --- |
| O=C(O)c1ccc(S(=O)(=O)N(Cc2ccc(OC(F)(F)F)cc2)c2ncc(C(F)(F)F)cc2Cl)cc1 | 0.33 | 0.79 | 0.81 | 0.4 | 0.15 | 0.16 | 0.93 | 0.99 | 0.75 | 0.93 | 0.85 | – | – | – | – | – | – | – | – | – | Growth Rate ([1]; 0 h, replicate number 1): 0.66; Growth Rate ([1]; 24 h, replicate number 2): 0.93; Growth Rate ([2]; 0 h, replicate number 2): -0.5 |
| CNS(=O)(=O)c1ccc(N(C)C)c(Nc2ncnc3cc(OC)c(OC)cc23)c1 | 0.92 | 0.6 | 0.42 | -1 | – | 0.69 | 0.51 | 0.65 | 0.6 | 0.39 | 0.71 | 0.17 | 0.88 | 0.79 | 0.32 | 0.4 | 0.29 | -1 | 0.84 | 0.8 | Growth Rate ([1]; 0 h, replicate number 1): -0.66; Growth Rate ([1]; 24 h, replicate number 2): 0.47; Growth Rate ([3]; 18 h, replicate number 1): 0.85 |
| C[C@@H]1CN(CC(=O)N2CC(C)(C)c3nc(CO)c(Cc4ccc(F)cc4)cc32)[C@@H](CN2CCOC[C@H]2C)CN1 [ASTX-660] | – | – | – | – | – | – | – | – | – | – | – | – | 0.97 | 0.89 | – | – | – | – | – | 0.98 | Growth Rate ([1]; 0 h, replicate number 1): 0.18; Growth Rate ([2]; 0 h, replicate number 2): 0.14 |
| CCCS(=O)(=O)Nc1ccc(F)c(Nc2ncnc3cnc(-n4cnc(C)c4)nc23)c1F | 0.5 | 0.72 | 0.73 | -0.99 | 0.75 | 0.53 | 0.53 | 0.61 | 0.63 | 0.84 | 0.67 | – | 0.75 | 0.71 | 0.62 | 0.69 | 0.77 | – | 0.7 | 0.97 | Growth Rate ([1]; 0 h, replicate number 1): -0.79; Growth Rate ([1]; 12 h, replicate number 1): 0.77; Growth Rate ([1]; 24 h, replicate number 2): 0.8; Growth Rate ([2]; 6 h, replicate number 2): 0.4; Growth Rate ([2]; 12 h, replicate number 1): 0.52; Growth Rate ([3]; 6 h, replicate number 1): 0.75; Growth Rate ([3]; 18 h, replicate number 1): 0.78 |
| CCOC(=O)N1CCC(CN(Cc2ccc(Cl)cc2)Cc2ccc([N+](=O)[O-])s2)C1 (stereo not given) [SR9009] | 0.23 | 0.27 | 0.28 | – | 0.43 | 0.3 | 0.48 | – | – | – | – | – | 0.48 | 0.41 | 0.2 | 0.38 | 0.39 | -0.35 | 0.94 | – | Growth Rate ([1]; 6 h, replicate number 1): 0.39; Growth Rate ([1]; 12 h, replicate number 1): 0.42; Growth Rate ([1]; 24 h, replicate number 2): 0.35; Growth Rate ([2]; 12 h, replicate number 1): 0.41 |
| COCCc1ccc(-c2c(C)nc3c(N4CCOCC4)ccnn23)cn1 [JNJ-42396302] | – | – | – | 0.07 | – | 0.88 | 0.86 | 0.56 | 0.93 | 0.99 | – | 0.44 | 0.91 | 0.86 | 0.81 | 0.84 | 0.91 | -0.6 | 0.98 | – | Growth Rate ([2]; 6 h, replicate number 2): 0.78; Growth Rate ([2]; 12 h, replicate number 1): 0.86; Growth Rate ([3]; 0 h, replicate number 2): 0.07 |
| O=C(NCc1cccc(O)c1)Nc1nc(-c2ccncc2)cs1 | – | – | – | – | -1 | – | – | – | – | – | 1 | -0.82 | – | – | – | – | – | – | – | 0.88 | Growth Rate ([1]; 0 h, replicate number 1): -0.16; Growth Rate ([2]; 0 h, replicate number 2): -0.55; Growth Rate ([3]; 0 h, replicate number 2): -0.94 |
| Cl.N/C(=N\C(=O)c1nc(Cl)c(N)nc1N)NCc1ccccc1 [BENZAMIL HYDROCHLORIDE] | 0.79 | 1 | – | 0.69 | -0.25 | – | – | – | 0.99 | – | 0.94 | – | – | – | 0.56 | 0.68 | 0.74 | 0.13 | – | – | Growth Rate ([1]; 6 h, replicate number 1): 0.83; Growth Rate ([2]; 6 h, replicate number 2): -0.19; Growth Rate ([3]; 18 h, replicate number 1): 1 |
| N[C@@H]1CCCN(c2c(/C=C3\SC(=O)NC3=O)cccc2-c2ccccc2)C1 | 0.84 | 0.79 | 0.84 | – | – | 0.83 | 1 | – | – | – | – | -0.99 | 0.8 | 0.92 | 0.34 | 0.55 | 0.53 | -0.41 | 0.97 | – | Growth Rate ([1]; 24 h, replicate number 2): 0.97; Growth Rate ([2]; 6 h, replicate number 2): 0.19; Growth Rate ([2]; 12 h, replicate number 1): 0.71 |
| Cl.NC(=O)c1ccccc1Nc1nc(-c2ccc(N3CCOCC3)cc2)cc2ncccc12 | -0.55 | -0.36 | -0.24 | – | -0.14 | 0.13 | 0.07 | 0.39 | 0.32 | 0.25 | 0.24 | -1 | -0.2 | -0.11 | -0.21 | -0.14 | -0.07 | – | 0.57 | 0.66 | Growth Rate ([1]; 6 h, replicate number 1): -0.65; Growth Rate ([1]; 12 h, replicate number 1): -0.4; Growth Rate ([2]; 6 h, replicate number 2): -0.47; Growth Rate ([2]; 12 h, replicate number 1): 0.05; Growth Rate ([3]; 0 h, replicate number 2): 0.86; Growth Rate ([3]; 6 h, replicate number 1): 0.76; Growth Rate ([3]; 18 h, replicate number 1): 0.62 |
| CO[C@H](C)CN1CC[C@]2(C)c3cccc(O)c3C[C@H]1C2(C)C.Cl | – | – | – | -1 | – | – | 0.9 | 0.57 | 0.71 | 0.84 | 0.92 | -0.19 | – | – | – | – | – | – | 0.7 | 0.84 | Growth Rate ([2]; 0 h, replicate number 2): -0.48; Growth Rate ([3]; 0 h, replicate number 2): -0.73; Growth Rate ([3]; 6 h, replicate number 1): 0.44; Growth Rate ([3]; 18 h, replicate number 1): 0.92 |
| O=C(Cc1ccccc1)Nc1nnc(N2CC[C@@H]3[C@H]2CN3c2cccnn2)s1 [A-426] | – | – | – | – | 0.66 | 0.8 | 0.73 | – | – | – | – | – | 0.67 | 0.85 | 0.86 | 0.69 | – | -0.69 | 0.69 | 0.84 | Growth Rate ([1]; 6 h, replicate number 1): 0.31; Growth Rate ([1]; 12 h, replicate number 1): 0.39; Growth Rate ([2]; 6 h, replicate number 2): 0.16; Growth Rate ([2]; 12 h, replicate number 1): 0.76; Growth Rate ([3]; 6 h, replicate number 1): 0.79; Growth Rate ([3]; 18 h, replicate number 1): 0.77 |
